Results: US6982348B2, “Aminoethanol derivatives” (Takeda Pharmaceutical Company Limited, priority 2001, dated 2006)

| melting point | SMILES |
| --- | --- |
| 217 to 218 °C | O=C(N[C@H](Cc1ccc(C(F)(F)F)cc1)[C@@H](O)c1ccccc1)c1ccc(F)c2ccccc12 (racemic) [Example 174, 4-fluoro-N-((1RS,2SR)-2-hydroxy-2-phenyl-1-((4-(trifluoromethyl)phenyl)methyl)ethyl)-1-naphthalenecarboxamide] |
| 200 to 201 °C | O=C(N[C@H](Cc1ccc(C(F)(F)F)cc1)[C@@H](O)c1cccc(F)c1)c1ccc(F)c2ccccc12 (racemic) [Example 176, 4-fluoro-N-((1RS,2SR)-2-(3-fluorophenyl)-2-hydroxy-1-((4-(trifluoromethyl)phenyl)methyl)ethyl)-1-naphthalenecarboxamide] |
| 190 to 191 °C | O=C(N[C@H](Cc1ccc(C(F)(F)F)cc1)[C@@H](O)c1ccccc1F)c1ccc(F)c2ccccc12 (racemic) [Example 179, 4-fluoro-N-((1RS,2SR)-2-(2-fluorophenyl)-2-hydroxy-1-((4-(trifluoromethyl)phenyl)methyl)ethyl)-1-naphthalenecarboxamide] |
| 124 to 125 °C | O=C(CCc1ccccc1)N[C@H](Cc1ccc(C(F)(F)F)cc1)[C@@H](O)c1ccccc1F (racemic) [Example 180, N-((1RS,2SR)-2-(2-fluorophenyl)-2-hydroxy-1-((4-(trifluoromethyl)phenyl)methyl)ethyl)-3-phenylpropanamide] |
| 194 to 195 °C | O=C(N[C@H](Cc1ccc(C(F)(F)F)cc1)[C@@H](O)c1ccc(F)cc1F)c1ccc(F)c2ccccc12 (racemic) [Example 181, N-((1RS,2SR)-2-(2,4-difluorophenyl)-2-hydroxy-1-((4-(trifluoromethyl)phenyl)methyl)ethyl)-4-fluoro-1-naphthalenecarboxamide] |
| 197 to 198 °C | O=C(N[C@H](Cc1ccc(C(F)(F)F)cc1)[C@@H](O)c1ccc(F)c(F)c1)c1ccc(F)c2ccccc12 (racemic) [Example 183, N-((1RS,2SR)-2-(3,4-difluorophenyl)-2-hydroxy-1-((4-(trifluoromethyl)phenyl)methyl)ethyl)-4-fluoro-1-naphthalenecarboxamide] |
| 217 to 218 °C | O=C(N[C@H](Cc1ccc(C(F)(F)F)cc1)[C@@H](O)c1cccc2ccccc12)c1cccc2ccccc12 (racemic) [Example 185, N-((1RS,2SR)-2-hydroxy-2-(1-naphthalenyl)-1-((4-(trifluoromethyl)phenyl)methyl)ethyl)-1-naphthalenecarboxamide] |
| 195 to 196 °C | O=C(N[C@H](Cc1ccc(C(F)(F)F)cc1)[C@@H](O)c1cccc2ccccc12)c1ccc(F)c2ccccc12 (racemic) [Example 186, 4-fluoro-N-((1RS,2SR)-2-hydroxy-2-(1-naphthalenyl)-1-((4-(trifluoromethyl)phenyl)methyl)ethyl)-1-naphthalenecarboxamide] |
| 251 to 252 °C | O=C(N[C@H](Cc1ccc(C(F)(F)F)cc1)[C@@H](O)c1cccc2ccccc12)c1ccc2ccccc2c1 (racemic) [Example 187, N-((1RS,2SR)-2-hydroxy-2-(1-naphthalenyl)-1-((4-(trifluoromethyl)phenyl)methyl)ethyl)-2-naphthalenecarboxamide] |
| 194 to 195 °C | O=C(N[C@H](Cc1ccc(C(F)(F)F)cc1)[C@@H](O)c1cccc2ccccc12)c1ccc(F)cc1 (racemic) [Example 188, 4-fluoro-N-((1RS,2SR)-2-hydroxy-2-(1-naphthalenyl)-1-((4-(trifluoromethyl)phenyl)methyl)ethyl)benzamide] |
| 232 to 233 °C | O=C(N[C@H](Cc1ccc(C(F)(F)F)cc1)[C@@H](O)c1cccc2ccccc12)c1ccc(C(F)(F)F)cc1 (racemic) [Example 189, N-((1RS,2SR)-2-hydroxy-2-(1-naphthalenyl)-1-((4-(trifluoromethyl)phenyl)methyl)ethyl)-4-(trifluoromethyl)benzamide] |
| 139 to 140 °C | O=C(CCCc1cccs1)N[C@H](Cc1ccc(C(F)(F)F)cc1)[C@@H](O)c1cccc2ccccc12 (racemic) [Example 191, N-((1RS,2SR)-2-hydroxy-2-(1-naphthalenyl)-1-((4-(trifluoromethyl)phenyl)methyl)ethyl)-4-(2-thienyl)butyramide] |
| 184 to 185 °C | COc1ccc([C@H](O)[C@@H](Cc2ccc(C(F)(F)F)cc2)NC(=O)c2ccc(F)c3ccccc23)cc1 (racemic) [Example 192, 4-fluoro-N-((1RS,2SR)-2-hydroxy-2-(4-methoxyphenyl)-1-((4-(trifluoromethyl)phenyl)methyl)ethyl)-1-naphthalenecarboxamide] |
| 203 to 204 °C | O=C(N[C@H](Cc1ccc(C(F)(F)F)cc1)[C@@H](O)c1ccc(Cl)cc1)c1ccc(F)c2ccccc12 (racemic) [Example 194, N-[(1RS,2SR)-2-(4-chlorophenyl)-2-hydroxy-1-[4-(trifluoromethyl)benzyl]ethyl]-4-fluoronaphthalene-1-carboxamide] |
| 206 to 207 °C | O=C(N[C@H](Cc1ccc(C(F)(F)F)cc1)[C@@H](O)c1ccoc1)c1ccc(F)c2ccccc12 (racemic) [Example 195, 4-fluoro-N-((1RS,2SR)-2-(3-furanyl)-2-hydroxy-1-((4-(trifluoromethyl)phenyl)methyl)ethyl)-1-naphthalenecarboxamide] |
| 201 to 203 °C | O=C(N[C@H](Cc1ccc(C(F)(F)F)cc1)[C@@H](O)c1ccc(Cl)s1)c1ccc(F)c2ccccc12 (racemic) [Example 197, N-[(1RS,2RS)-2-(5-chloro-2-thienyl)-2-hydroxy-1-[4-(trifluoromethyl)benzyl]ethyl]-4-fluoronaphthalene-1-carboxamide] |
| 188 to 189 °C | O=C(N[C@H](Cc1ccc(C(F)(F)F)cc1)[C@@H](O)c1ccc(Cl)nc1)c1ccc(F)c2ccccc12 (racemic) [Example 202, N-((1RS,2SR)-2-(6-chloro-3-pyridyl)-2-hydroxy-1-((4-(trifluoromethyl)phenyl)methyl)ethyl)-4-fluoro-1-naphthalenecarboxamide] |

Second part, the compound before the results:

| SMILES | melting point |
| --- | --- |
| CC(C)(C)OC(=O)N[C@H](Cc1cnc(C(F)(F)F)s1)[C@@H](O)c1ccc(F)cc1 (racemic) [Example 168, tert-butyl N-[(1RS,2SR)-2-(4-fluorophenyl)-2-hydroxy-1-[[2-(trifluoromethyl)-1,3-thiazol-5-yl]methyl]ethyl]carbamate] | 137 to 138 °C |
| O=C(N[C@H](Cc1cnc(C(F)(F)F)s1)[C@@H](O)c1ccc(F)cc1)c1ccc(F)c2ccccc12 (racemic) [Example 169, 4-fluoro-N-[(1RS,2SR)-2-(4-fluorophenyl)-2-hydroxy-1-[[2-(trifluoromethyl)-1,3-thiazol-5-yl]methyl]ethyl]naphthalene-1-carboxamide] | 197 to 198 °C |
| O=C(N[C@H](Cc1cccc(OCC(F)(F)F)c1)[C@@H](O)c1ccc(F)cc1)c1ccc(F)c2ccccc12 (racemic) [Example 170, N-((1RS,2SR)-2-(4-fluorophenyl)-2-hydroxy-1-((3-(2,2,2-trifluoroethoxy)phenyl)methyl)ethyl)-4-fluoro-1-naphthalenecarboxamide] | 192 to 193 °C |
| O=C(N[C@H](Cc1cccc(OCC(F)(F)C(F)F)c1)[C@@H](O)c1ccc(F)cc1)c1ccc(F)c2ccccc12 (racemic) [Example 172, N-((1RS,2SR)-2-(4-fluorophenyl)-2-hydroxy-1-((3-(2,2,3,3-tetrafluoropropyloxy)phenyl)methyl)ethyl)-4-fluoro-1-naphthalenecarboxamide] | 160 to 161 °C |
| O=C(CCc1ccccc1)N[C@H](Cc1ccc(C(F)(F)F)cc1)[C@@H](O)c1ccccc1 (racemic) [Example 175, N-((1RS,2SR)-2-hydroxy-2-phenyl-1-((4-(trifluoromethyl)phenyl)methyl)ethyl)-3-phenylpropanamide] | 147 to 148 °C |
| O=C(CCc1ccccc1)N[C@H](Cc1ccc(C(F)(F)F)cc1)[C@@H](O)c1cccc(F)c1 (racemic) [Example 178, N-((1RS,2SR)-2-(3-fluorophenyl)-2-hydroxy-1-((4-(trifluoromethyl)phenyl)methyl)ethyl)-3-phenylpropanamide] | 151 to 152 °C |
| O=C(CCc1ccccc1)N[C@H](Cc1ccc(C(F)(F)F)cc1)[C@@H](O)c1ccc(F)cc1F (racemic) [Example 182, N-((1RS,2SR)-2-(2,4-difluorophenyl)-2-hydroxy-1-((4-(trifluoromethyl)phenyl)methyl)ethyl)-3-phenylpropanamide] | 126 to 127 °C |
| O=C(CCc1ccccc1)N[C@H](Cc1ccc(C(F)(F)F)cc1)[C@@H](O)c1ccc(F)c(F)c1 (racemic) [Example 184, N-((1RS,2SR)-2-(3,4-difluorophenyl)-2-hydroxy-1-((4-(trifluoromethyl)phenyl)methyl)ethyl)-3-phenylpropanamide] | 114 to 115 °C |
| O=C(N[C@H](Cc1ccc(C(F)(F)F)cc1)[C@@H](O)c1cccc2ccccc12)C1CCCCC1 (racemic) [Example 190, N-((1RS,2SR)-2-hydroxy-2-(1-naphthalenyl)-1-((4-(trifluoromethyl)phenyl)methyl)ethyl)cyclohexanecarboxamide] | 156 to 157 °C |
| COc1ccc([C@H](O)[C@@H](Cc2ccc(C(F)(F)F)cc2)NC(=O)CCc2ccccc2)cc1 (racemic) [Example 193, N-((1RS,2SR)-2-hydroxy-2-(4-methoxyphenyl)-1-((4-(trifluoromethyl)phenyl)methyl)ethyl)-3-phenylpropanamide] | 116 to 117 °C |
| O=C(CCc1ccccc1)N[C@H](Cc1ccc(C(F)(F)F)cc1)[C@@H](O)c1ccoc1 (racemic) [Example 196, N-((1RS,2SR)-2-(3-furanyl)-2-hydroxy-1-((4-(trifluoromethyl)phenyl)methyl)ethyl)-3-phenylpropanamide] | 134 to 135 °C |
| O=C(N[C@H](Cc1ccc(C(F)(F)F)cc1)[C@@H](O)c1ccc(Cl)s1)c1cccc2c1C=CCCC2 (racemic) [Example 198, N-[(1RS,2RS)-2-(5-chloro-2-thienyl)-2-hydroxy-1-[4-(trifluoromethyl)benzyl]ethyl]-6,7-dihydro-5H-benzo[a]cycloheptene-1-carboxamide] | 184 to 185 °C |
